Measurements as given in patent US4504483A, “Fluorine substituted pyridine methyl esters and insecticidal and acaricidal compositions thereof” (Nissan Chemical Industries Ltd., priority 1981, dated 1985).
Values after ≈ are worked out from the molar mass of the structure shown.

Columns and labels:
[1] = system: Twenty-eight-spotted Ladybeetle; experiment: Contact test for killing Twenty-eight-spotted Ladybeetle; assay type: in vivo; conditions: Henosepilachna vigintioctopunctata, in Solanum lycopersicum, 48 h, read-out: LC50 (median lethal dose)
Description: Leaves of tomato were dipped in each emulsion of each active ingredient of the present invention or the reference for 10 seconds. The leaves were taken up and dired in air and put in a Petri dish. Ten of Twenty-eight-spotted Ladybeetles (second instar) were put in the Petri dish which was covered with a cover. The Petri dish was maintained in a constant temperature room at 25° C. for 48 hours and percent mortality was determined and median lethal dose (LC50) was calculated in Finny's graphic method.

[2] = system: Common cutworm; experiment: Contact test for killing Common cutworm; assay type: in vivo, Spodoptcra litura; conditions: 48 h, read-out: LC50 (median lethal dose)
Description: Leaves of cabbage were dipped in each aqueous emulsion of each active ingredient of the compounds of the invention or the reference for 10 seconds. The leaves were taken up and dried in air and put in a Petri dish. Common cutworms (second instar) were put in the Petri dish which was covered with a cover having many holes. The Petri dish was maintained in a constant temperature room at 25° C. for 48 hours and each percent mortality was determined and median lethal dose (LC50) was calculated in Finny's graphic method.

[3] = system: Kanzawa spider mite; experiment: Test for killing Kanzawa spider mite; assay type: in vivo; conditions: Tetranychus kanzawai, in Phaseolus vulgaris, 48 h, read-out: LC50 (median lethal dose)
Text: Leaves of kidney bean was cut by a leaf-punch in a form of circle having a diameter of 1.5 cm. The leaf-discs were put on a wet filter paper on a polystyrene cup having a diameter of 7 cm. Ten of Kanzawa spider mites were inoculated on the leaf-discs in the cup. Half days after the inoculation, each solution prepared by diluting each emulsifiable concentrate of the present invention or each reference compound with a spreader (Nitten S 4,000 times manufactured by Nissan Chem.) at each predetermined concentration was sprayed by a rotary spray for 2 ml. per each cup.
Numbers of mortalities of mites were measured after 48 hours from the spraying and percent mortaliteis were calculated and median lethal dose (LC50) was calculated in Finny's graphic method.

[4] = system: green rice leafhopper; experiment: Contact test for killing green rice leafhopper; assay type: in vivo; conditions: Nephotettix cincticeps, 48 h, read-out: LC50 (median lethal dose)
Description: Stems and leaves of a rice seedling were dipped in each emulsion of each active ingredient of the present invention or a reference compound for 10 seconds and were dried in air. The stems and leaves were covered with a glass cylinder. Adult green rice leafhoppers which are resistant to the conventional organic phosphorus type insecticide were released into the glass cylinder which was covered with a cover having holes and was maintained in a constant temperature room at 25° C. for 48 hours and each percent mortality was determined and median lethal dose (LC50) was calculated in Finny's graphic method.

[5] = system: Green peach aphid; experiment: Test for killing Green peach aphid; assay type: in vivo, Myzue persicae; conditions: Myzus persicae, 48 h, read-out: LC50 (median lethal dose)
Description: Each emulsifiable concentrate of the compound of the present invention or the reference compound was diluted with water to a predetermined concentration. Green peach aphid were inoculated on leaves in a Petri dish having a diameter of 3 cm and 2 ml of each emulsion was sprayed and it was covered. The Petri dish was maintained in a constant temperature room at 25° C. for 48 hours and each percent of mortality was determined and median lethal dose (LC50) was calculated in Finny's graphic method.

Question: Which results are given for `CC(C)C(C(=O)OC(C#N)c1ccc(F)c(Oc2ccccc2)n1)c1ccc(Cl)cc1` (stereo not drawn) [Compound No. 1, Cyano(5-fluoro-6-phenoxy-2-pyridyl) methyl α-isopropyl-p-chlorophenylacetate]?
Answer: LC50 [1]: 0.05 µg/mL (≈ 0.114 µM); LC50 [2]: 0.43 µg/mL (≈ 0.98 µM); LC50 [3]: 6.3 µg/mL (≈ 14.4 µM); LC50 [4]: 0.26 µg/mL (≈ 0.592 µM)

Question: What does the source list for `CC(C)C(C(=O)OC(C#N)c1cccc(Oc2ccc(F)cc2)n1)c1ccc(Cl)cc1` (centres unmarked) [Reference Compd. A]?
Answer: LC50 [2]: 3.1 µg/mL (≈ 7.06 µM); LC50 [3]: 100 µg/mL (≈ 228 µM); LC50 [4]: 1.4 µg/mL (≈ 3.19 µM)

Question: Which LC50 [2] does the source give for `CC1(C)C(C(=O)OC(C#N)c2cccc(Oc3ccc(F)cc3)n2)C1c1ccc(Cl)cc1` (centres unmarked) [Reference Compd. E] here?
Answer: 13 µg/mL (≈ 28.8 µM)

Question: And the LC50 [4]?
Answer: 16 µg/mL (≈ 35.5 µM)

Question: Which results are given for `CC1(C)C(C=C(Cl)Cl)C1C(=O)OC(C#N)c1ccc(F)c(Oc2ccccc2)n1` (centres unmarked) [Compound No. 5]?
Answer: LC50 [1]: 0.03 µg/mL (≈ 0.0689 µM); LC50 [2]: 0.31 µg/mL (≈ 0.712 µM); LC50 [5]: 1.84 µg/mL (≈ 4.23 µM); LC50 [3]: 5.4 µg/mL (≈ 12.4 µM); LC50 [4]: 0.4 µg/mL (≈ 0.919 µM)

Question: Which LC50 [1] does the source give for `CC1(C)C(C(=O)OC(C#N)c2cccc(Oc3ccccc3)n2)C1c1ccc(Cl)cc1` (centres unmarked) [Reference Compd. F] here?
Answer: 2 µg/mL (≈ 4.62 µM)

Question: And the LC50 [2]?
Answer: 15 µg/mL (≈ 34.6 µM)

Question: Which LC50 [2] does the source give for `CC(C)(C)c1ccc([C@H]2[C@H](C(=O)OC(C#N)c3ccc(F)c(Oc4ccccc4)n3)C2(C)C)cc1` (relative stereo) [Compound No. 4, Cyano(5-fluoro-6-phenoxy-2-pyridyl) methyl trans-2,2-dimethyl-3-(p-t-butylphenyl)cyclopropanecarboxylate] here?
Answer: 4 µg/mL (≈ 8.46 µM)

Question: And the LC50 [5]?
Answer: 4.6 µg/mL (≈ 9.73 µM)

Question: What about the LC50 [3] of the same molecule?
Answer: 0.32 µg/mL (≈ 0.677 µM)

Question: What about the LC50 [4] of the same molecule?
Answer: 1.3 µg/mL (≈ 2.75 µM)

Question: Which LC50 [1] does the source give for `CC1(C)[C@@H](C(=O)OC(C#N)c2ccc(F)c(Oc3ccccc3)n2)[C@@H]1c1ccc(Cl)cc1` (relative stereo) [Compound No. 3] here?
Answer: 0.26 µg/mL (≈ 0.577 µM)

Question: And the LC50 [2]?
Answer: 1.3 µg/mL (≈ 2.88 µM)

Question: And the LC50 [4]?
Answer: 0.7 µg/mL (≈ 1.55 µM)

Question: What does the source list for `CC(C)C(C(=O)OC(C#N)c1cccc(Oc2ccc(F)cc2)n1)c1ccc(OC(F)F)cc1` (centres unmarked) [Reference Compd. C]?
Answer: LC50 [1]: 21 µg/mL (≈ 44.6 µM); LC50 [2]: 5 µg/mL (≈ 10.6 µM); LC50 [3]: > 100 µg/mL; LC50 [4]: 76 µg/mL (≈ 162 µM)

Question: For `CC(C)(C)c1ccc(C2C(C(=O)OC(C#N)c3cccc(Oc4ccc(F)cc4)n3)C2(C)C)cc1` (centres unmarked) [Reference Compd. G], which LC50 [2] is on record?
Answer: 12 µg/mL (≈ 25.4 µM)

Question: What about the LC50 [3] of the same molecule?
Answer: 2 µg/mL (≈ 4.23 µM)

Question: What about the LC50 [4] of the same molecule?
Answer: 32 µg/mL (≈ 67.7 µM)

Question: What does the source list for `CC(C)C(C(=O)OC(C#N)c1cccc(Oc2ccccc2)n1)c1ccc(OC(F)F)cc1` (centres unmarked) [Reference Compd. D]?
Answer: LC50 [1]: 0.9 µg/mL (≈ 1.99 µM); LC50 [2]: 9 µg/mL (≈ 19.9 µM); LC50 [5]: 26 µg/mL (≈ 57.5 µM); LC50 [4]: 6 µg/mL (≈ 13.3 µM)

Question: How did the LC50 [5] turn out when `CCCCc1ccc(C2C(C(=O)OC(C#N)c3cccc(Oc4ccccc4)n3)C2(C)C)cc1` (centres unmarked) [Reference Compd. H] was run?
Answer: 12 µg/mL (≈ 26.4 µM)

Question: What about the LC50 [4] of the same molecule?
Answer: 6.4 µg/mL (≈ 14.1 µM)

Question: With `CC(C)C(C(=O)OC(C#N)c1ccc(F)c(Oc2ccccc2)n1)c1ccc(OC(F)F)cc1` (centres unmarked) [Compound No. 2] as the molecule, how does the LC50 [1] read?
Answer: 0.5 µg/mL (≈ 1.06 µM)

Question: And the LC50 [2]?
Answer: 3 µg/mL (≈ 6.38 µM)

Question: What about the LC50 [5] of the same molecule?
Answer: 2.3 µg/mL (≈ 4.89 µM)

Question: And the LC50 [3]?
Answer: 12 µg/mL (≈ 25.5 µM)

Question: And the LC50 [4]?
Answer: 0.28 µg/mL (≈ 0.595 µM)

Question: `CC1(C)[C@H](C(=O)OC(C#N)c2ccc(F)c(Oc3ccccc3)n2)[C@@H]1C=C(Br)Br` (stereo partly drawn) [Compound No. 6, Cyano(5-fluoro-6-phenoxy-2-pyridyl) methyl (1R, cis)-2,2-dimethyl-3-(2,2-dibromovinyl)cyclopropane carboxylate] was tested. Which LC50 [1] did it give?
Answer: 0.02 µg/mL (≈ 0.0382 µM)

Question: And the LC50 [2]?
Answer: 0.24 µg/mL (≈ 0.458 µM)

Question: And the LC50 [4]?
Answer: 0.31 µg/mL (≈ 0.591 µM)

Question: How did the LC50 [2] turn out when `CC1(C)C(C=C(Cl)Cl)C1C(=O)OCc1cccc(Oc2ccccc2)n1` (centres unmarked) [Reference Compd. I] was run?
Answer: 10 µg/mL (≈ 25.5 µM)

Question: And the LC50 [5]?
Answer: 34 µg/mL (≈ 86.7 µM)

Question: What about the LC50 [3] of the same molecule?
Answer: > 100 µg/mL

Question: What about the LC50 [4] of the same molecule?
Answer: 3.7 µg/mL (≈ 9.43 µM)

Question: Which LC50 [2] does the source give for `CC(C)C(C(=O)OC(C#N)c1cccc(Oc2ccccc2)n1)c1ccc(Cl)cc1` (centres unmarked) [Reference Compd. B] here?
Answer: 1.7 µg/mL (≈ 4.04 µM)

Question: And the LC50 [4]?
Answer: 5 µg/mL (≈ 11.9 µM)
